Values of other authors as cited in patent US20240252580A1, “AMINO ACID HYDRATION FORMULATION AND METHOD OF USE” (The Coca-Cola Company, priority 2021, published 2024).
Peptide text beside a SMILES is read from it.

Conditions: for effect on sodium and water absorption from the human jejunum: perfusion technique; for dependence of sodium and water absorption on amino acid concentration: saturation not demonstrated over the range of concentrations

SMILES	effect on sodium and water absorption from the human jejunum	dependence of sodium and water absorption on amino acid concentration
NCC(=O)NCC(=O)O [Gly-Gly, glycyl-glycine] (H-Gly-Gly-OH)	significant stimulation	–
C[C@H](N)C(=O)O [alanine]	significant stimulation	increased linearly with increasing concentration
C[C@H](NC(=O)CN)C(=O)O [Gly-Ala, glycyl-L-alanine] (H-Gly-Ala-OH)	significant stimulation	–
NCC(=O)O [glycine]	significant stimulation	increased linearly with increasing concentration
